Experimental data taken from patent US5721223A, “Imidazo[1,2-a] Pyridinyldiacid compounds for cognitive enhancement and for treatment of cognitive disorders and neurotoxic injury” (priority 1995, dated 1998).
Structures can show the parent of a compound that is named as a salt.

Biological target: T1, glycine receptor site (Rattus norvegicus, UniProt P35439)
T1 construct: Synaptic plasma membranes (SPM) were prepared from rat forebrain; from tissue; host or cells: rat forebrain synaptic plasma membranes
Test: Glycine binding assay ([3H]GLY)
Conditions: [3H]glycine 10 nM, rat forebrain SPM
Procedure: Synaptic plasma membranes (SPM) were prepared from rat forebrain and stored as previously described [J. B. Monahan and J. Michel, J. Neurochem, 48, 1699-1708 (1987)]. Frozen membranes were thawed and diluted 1:20 with 0.04% Triton X-100 in 50 mM tris/acetate (pH 7.4). Following incubation at 37° C. for 30 min., the SPM were collected by centrifugation at 95,000×g for 15 min. The pellet was resuspended in 50 mM tris/acetate (pH 7.4, Triton-free) and hand-homogenized five times. The membranes were again centrifuged as above. The pellet was washed two additional times with 50 mM tris/acetate (without homogenization) and centrifuged. The final pellet was resuspended with homogenization in 50 mM tris/acetate. In the general receptor binding assay procedure, 10 nM [3H]glycine was added to the appropriate concentration of the test compounds and the assay initiated by the addition of 0.2-0.4 mg of ice cold SPM. […] Beckman MP scintillation cocktail (5 mL) containing 7 mL/liter acetic acid was then added and the samples counted on a Beckman LS 5800 liquid scintillation counter with automatic corrections for quenching and counting efficiency. […] The binding of [3H]glycine to the SPM was analyzed using Scatchard and Hill transformations and the Ki for other compounds was determined using logit-log analysis. […]

- Ki: 51 µM
SMILES: O=C(O)Cc1c(C(=O)O)nc2ccccn12 [Example 3, hydrochloride]
